Test results as given in patent publication US10308647B2, “Fused imidazole derivatives as IDO/TDO inhibitors” (SciFluor Life Sciences, Inc., priority 2015, dated 2019).

How the values were obtained:
recombinant TDO2 = recombinant TDO2 (Homo sapiens, UniProt P48775); assay: TDO2 enzymatic assay (UV absorption, N-formylkynurenine formation); assay type: biochemical; settings: for IC50: 50 nM TDO2, 200 μM tryptophan, 60 min, room temperature, read-out: Enzyme TDO IC50; for Enzyme TDO IC50 ratio compared to Ref. Cmpd 1: IC50 of compound divided by IC50 of Ref. Cmpd 1
Method: (§1) The assay was performed by UV absorption using either recombinant IDO1 or TDO2 and L-Tryptophan as substrate. The UV absorption signal at 321 nm was correlated with the amount of N-formylkynurenine reaction product of IDO1 and TDO2.
(§2) The compounds of the present application were diluted in 10% DMSO and 5 μl of the dilution was added to a 100 μl reaction so that the final concentration of DMSO is 0.5% in all reactions.
TDO2 Assay: All of the reactions were conducted at room temperature. The 100 μl reaction mixture in TDO2 Assay Buffer contains 50 nM TDO2, the indicated amount of the compound, 200 μM tryptophan, and the coupled reaction components. The reaction mixture was incubated for 60 min prior to reading of the UV absorption signal. For the negative control (blank), 5 μl of the assay buffer was added instead of the TDO2.
(§3) Absorption signals were measured using a Tecan Infinite M1000 plate reader.
Data analysis: Binding experiments were performed in duplicate at each concentration. The data were analyzed using the computer software, Graphpad Prism. In the absence of the compound, the absorption signal (At) in each data set was defined as 100% activity. In the absence of the IDO1, the absorption signal (Ab) in each data set was defined as 0% activity. The percent activity in the presence of each compound was calculated according to the following equation: % activity=[(A−Ab)/(At−Ab)]×100, where A=the absorption signal in the presence of the compound. […] The values of % activity versus a series of compound concentrations were then plotted using non-linear regression analysis of Sigmoidal dose-response curve generated with the equation Y=B+(T−B)/1+10^((LogIC50−X)×Hill Slope), where Y=percent activity, B=minimum percent activity, T=maximum percent activity, X=logarithm of compound and Hill Slope=slope factor or Hill coefficient. The IC50 value was determined by the concentration causing a half-maximal percent activity.

recombinant IDO1 = recombinant IDO1 (Homo sapiens, UniProt P14902); assay: IDO1 enzymatic assay (UV absorption, N-formylkynurenine formation); assay type: biochemical; settings: for IC50: 40 nM IDO1, 900 μM tryptophan, 180 min, room temperature, read-out: Enzyme IDO IC50; for Enzyme IDO IC50 ratio compared to Cmpd 2: IC50 of compound divided by IC50 of reference compound 2
Method: as §1, §2
IDO1 Assay: All of the reactions were conducted at room temperature. The 100 μl reaction mixture in IDO Assay Buffer contains 40 nM IDO1, the indicated amount of the compound, 900 μM tryptophan, and the coupled reaction components. The reaction mixture was incubated for 180 min prior to reading of the UV absorption signal. For the negative control (blank), 5 μl of the assay buffer was added instead of the IDO1.
as §3
Data analysis: Binding experiments were performed in duplicate at each concentration. The data were analyzed using the computer software, Graphpad Prism. In the absence of the compound, the absorption signal (At) in each data set was defined as 100% activity. In the absence of the IDO1, the absorption signal (Ab) in each data set was defined as 0% activity. The percent activity in the presence of each compound was calculated according to the following equation: % activity=[(A−Ab)/(At−Ab)]×100, where A=the absorption signal in the presence of the compound. The percent inhibition was calculated according to the following equation: % inhibition=100−% activity. The values of % activity versus a series of compound concentrations were then plotted using non-linear regression analysis of Sigmoidal dose-response curve generated with the equation Y=B+(T−B)/1+10^((LogIC50−X)×Hill Slope), where Y=percent activity, B=minimum percent activity, T=maximum percent activity, X=logarithm of compound and Hill Slope=slope factor or Hill coefficient. The IC50 value was determined by the concentration causing a half-maximal percent activity.

recombinant TDO2, sequence (P48775 whole entry, species assumed): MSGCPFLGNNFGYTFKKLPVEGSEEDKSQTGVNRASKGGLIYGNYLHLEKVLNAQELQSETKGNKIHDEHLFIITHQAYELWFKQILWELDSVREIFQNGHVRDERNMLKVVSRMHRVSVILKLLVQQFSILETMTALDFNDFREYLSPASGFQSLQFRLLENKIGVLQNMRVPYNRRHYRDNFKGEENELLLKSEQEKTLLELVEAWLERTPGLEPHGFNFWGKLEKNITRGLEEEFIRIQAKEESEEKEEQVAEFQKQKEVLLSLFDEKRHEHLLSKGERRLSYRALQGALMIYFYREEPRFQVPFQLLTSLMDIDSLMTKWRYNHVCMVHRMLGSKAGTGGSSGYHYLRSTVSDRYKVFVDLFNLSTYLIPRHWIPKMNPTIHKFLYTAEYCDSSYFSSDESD
recombinant IDO1, sequence (P14902 whole entry, species assumed): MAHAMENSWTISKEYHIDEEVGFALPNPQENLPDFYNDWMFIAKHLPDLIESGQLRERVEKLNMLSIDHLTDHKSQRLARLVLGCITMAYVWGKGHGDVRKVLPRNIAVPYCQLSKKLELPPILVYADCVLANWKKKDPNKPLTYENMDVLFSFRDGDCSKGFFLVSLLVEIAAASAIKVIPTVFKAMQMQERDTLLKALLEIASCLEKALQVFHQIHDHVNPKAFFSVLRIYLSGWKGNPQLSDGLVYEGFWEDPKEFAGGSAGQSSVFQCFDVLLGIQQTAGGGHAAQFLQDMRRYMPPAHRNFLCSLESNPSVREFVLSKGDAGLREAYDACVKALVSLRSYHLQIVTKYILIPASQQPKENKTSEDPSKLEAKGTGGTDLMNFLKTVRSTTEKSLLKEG

SMILES | IC50 (recombinant TDO2) [µM] | IC50 (recombinant IDO1) [µM] | Enzyme TDO IC50 ratio compared to Ref. Cmpd 1 (recombinant TDO2) | Enzyme IDO IC50 ratio compared to Cmpd 2 (recombinant IDO1)
CC1c2ccccc2-c2cncn2C1C(O)C1CCCCC1 (centres unmarked) [Cmpd 294] | > 30 | > 30 | – | –
OC1CCC(C(O)CC2(C(F)(F)F)c3c(F)cccc3-c3cncn32)CC1 (centres unmarked) [Cmpd 292] | > 100 | > 100 | – | –
OC(CC1Cc2ccccc2-c2cncn21)C1CCCCC1 (centres unmarked) [Cmpd 278] | 0.165 | 0.149 | 0.43 | 3.47
OC(/C=C/c1c(F)cccc1-c1c[nH]cn1)C1CCCCC1 (centres unmarked) [Cmpd 303] | 9.2 | > 30 | 11.47 | –
OC(CC1c2ccccc2Cc2cncn21)C1CCCCC1 (centres unmarked) [Cmpd 297] | 2.2 | 14 | 6.90 | 129.63
OC1CCC(C(F)CC2Cc3ccccc3-c3cncn32)CC1 (centres unmarked) [Cmpd 310] | 1.9 | 1.2 | 5.67 | 32.43
FC(CC1Cn2cncc2-c2ccccc21)C1CCCCC1 (centres unmarked) [Cmpd 307] | 0.052 | 0.299 | 0.25 | 7.29
OC(C1CCCCC1)C1CC1c1c(F)cccc1-c1c[nH]cn1 (centres unmarked) [Cmpd 304] | 3.1 | 12.5 | 3.87 | 142.05
OC(CC1(C(F)(F)F)c2ccccc2-c2cncn21)C1CCCCC1 (centres unmarked) [Cmpd 291] | 26 | > 100 | 16.25 | –
OC1CCC(C(O)CC2(C(F)(F)F)c3c(F)cccc3-c3cncn32)CC1 (centres unmarked) [Cmpd 293] | > 100 | > 100 | – | –
OC1c2ccccc2C(CC(O)C2CCCCC2)n2cncc21 (centres unmarked) [Cmpd 298] | > 30 | > 30 | – | –
FC(CC1Cc2ccccc2-c2cncn21)C1CCCCC1 (centres unmarked) [Cmpd 312] | 0.078 | 0.049 | 0.23 | 1.32
FC(CC1Cc2ccccc2-c2cncn21)C1CCCCC1 (centres unmarked) [Cmpd 311] | 0.111 | 0.31 | 0.33 | 8.38
CC1c2ccccc2-c2cncn2C1C(O)C1CCCCC1 (centres unmarked) [Cmpd 295] | 8.4 | 14.5 | 8.40 | 216.42
OC(CC1C(O)c2ccccc2-c2cncn21)C1CCCCC1 (centres unmarked) [Cmpd 309] | 7.6 | 5.5 | 33.33 | 105.77
OC(CC1C(O)c2ccccc2-c2cncn21)C1CCCCC1 (centres unmarked) [Cmpd 308] | 14.2 | 23 | 62.28 | 442.31
O[C@@H](C[C@H]1Cn2cncc2-c2ccccc21)C1CCCCC1 (racemic) [Cmpd 305] | 0.166 | 0.328 | 0.78 | 8.00
OC(CC1CCc2ccccc2-c2cncn21)C1CCCCC1 (centres unmarked) [Cmpd 279] | 2.36 | 7.1 | 6.21 | 165.12
FC(CC1Cc2ccccc2-c2cncn21)C1CCCCC1 (centres unmarked) [Cmpd 301] | 0.096 | 0.133 | 0.12 | 1.51
OC(CCc1c(F)cccc1-c1c[nH]cn1)C1CCCCC1 (centres unmarked) [Cmpd 302] | 15.5 | 19.9 | 19.33 | 226.14
CC1(CC(O)C2CCCCC2)c2ccccc2-c2cncn21 (centres unmarked) [Cmpd 296] | 2.3 | 13.1 | 2.30 | 195.52
OC(CC1(C(F)(F)F)c2ccccc2-c2cncn21)C1CCCCC1 (single isomer, unassigned) [Cmpd 290] | – | > 100 | 18.75 | –
O[C@@H](C[C@@H]1Cn2cncc2-c2ccccc21)C1CCCCC1 (racemic) [Cmpd 306] | 0.286 | 1.2 | 1.35 | 29.27
